Experiments:
Type in all cases: in vivo, human
[1] = test system: patients with cancer-related psychiatric and existential distress; test: Hospital Anxiety and Depression Scale (HADS), long-term follow-up of psilocybin-assisted psychotherapy trial; conditions: for HADS Depression / HADS Anxiety / HADS Total: single 0.3 mg/kg dose with psychotherapy; for HADS Depression: baseline 5.88; for HADS Anxiety: baseline 10.56; for HADS Total: baseline 16.45
Protocol: (§1) The present example assesses the long-term effects of a single dose of psilocybin (0.3 mg/kg) in conjunction with psychotherapy in patients with cancer-related psychiatric and existential distress.
(§2) 29 participants were randomly assigned to one of two groups: psilocybin (0.3 mg/kg) on the first medication session followed by niacin (250 mg) on the second session (i.e. psilocybin-first group), or niacin (250 mg) on the first medication session followed by psilocybin (0.3 mg/kg) on the second session (i.e. niacin-first group). Psilocybin and niacin were administered in identically appearing gelatin capsules.
(§3) Participants received three 2-hour preparatory psychotherapy sessions in order to review the purpose and intention of participation in the study, treatment goals, and structure of the treatment sessions. Medications were administered in 8-hour treatment sessions which included a discussion of the participant's subjective experience with the treatment team to consolidate the memory of the experience and to begin the process of post-integrative psychotherapy. Participants also received three 2-hour post-medication integration sessions (repeated after the second dosing session) to further consolidate the memory of the experience and to continue the process of psychological integration. All psychotherapy treatment sessions were delivered by a dyadic therapy team trained in a blend of psychotherapies with an evidence base to support their use in cancer patients (drawing upon principles of palliative care therapy, existential psychotherapy, cognitive-behavioural therapy, psychoanalysis therapy, and transpersonal psychology) and were taught about the safety and clinical pharmacology of psilocybin. Each therapy dyad underwent six confidential one-to-one sessions to build their alliance and exchange ideas about psychedelic therapy. The trial employed a crossover design at seven weeks following the first drug administration, with an outcome assessment at 6.5 months (26 weeks) following the second drug administration (i.e. after the crossover).
(§4) Two long-term follow ups (LTFUs) were carried out to assess the continued effect of psilocybin. Of the original 29 participants, all 16 participants who were not deceased at the time of LTFU were contacted (the remaining 13 participants were deceased). Of the 16 participants who were contacted, 15 agreed to participate in the LTFU and completed measures through a secure online portal. One participant died (from cancer-related complications) after completing the first LTFU and prior to the second LTFU, leaving us with 14 participants at the second LTFU. The first and second LTFUs occurred on average 3.2 years (range 2.3-4.5 years) and 4.5 years (range 3.5-5.5 years) following the participants' psilocybin dosing date, respectively.
Primary outcomes (anxiety and depression) were measured according to the following methods: • Hospital Anxiety and Depression Scale (HADS) (Zigmond and Snaith, 1983)—this is widely used in hospital settings to screen for the severity of anxiety and depression. It contains 14 questions rated on a four-point scale (total score (HAD-T) ranges from […]). Subscale scores can be calculated for depression (HADS-D) and anxiety (HADS-A). […] The HADS has shown good reliability (Cronbach's a ranging from 0.80-0.93) and has been well validated (Herrmann, 1997). • Beck Depression Inventory-II (BDI-II) (Beck et al., 1988)—a widely used self-report screening measure for depression. The BDI-II consists of 21 questions about depressive symptoms experienced over the past two weeks rated on a […] scale (total score ranges from 0-63). Scores above 12 indicate possible clinical depression. This measure has shown good reliability (internal consistency of 0.90) and factorial validity (Storch et al. 2004). • Spielberger State-Trait Anxiety Inventory (STAI) (Spielberger, 1983)—a well-known measure of anxiety consisting of scales for state (STAI-S) and trait-level anxiety (STAI-T). […]

[2] = test system: patients with cancer-related psychiatric and existential distress; test: Demoralization Scale (DS), long-term follow-up; conditions: single 0.3 mg/kg dose with psychotherapy, baseline 31.88, p < 0.001 vs baseline
Protocol: as §1, §2
as §3, with “Each therapy dyad underwent six confidential one-to-one sessions to build their alliance and exchange ideas about psychedelic therapy. The trial employed a crossover design at seven weeks following the first drug administration, with an outcome assessment at 6.5 months (26 weeks) following the second drug administration (i.e. after the crossover).” left out
(§5) Cancer-related existential distress (demoralization, hopelessness, attitudes and effects associated with disease progression and death) was assessed using the following methods: • The Death Anxiety Scale (DAS) (Templer, 1970)—a 15-item measure that has been used most frequently to assess death anxiety. Items are scored “true” and “false” and then scored as one and zero, respectively. […]

[3] = test system: patients with cancer-related psychiatric and existential distress; test: Hopelessness Assessment in Illness (HAI), long-term follow-up; conditions: for Hopelessness: single 0.3 mg/kg dose with psychotherapy, baseline 5.75, p < 0.001 vs baseline
Protocol: as §1, §2, §3
Two long-term follow ups (LTFUs) were carried out to assess the continued effect of psilocybin. Of the original 29 participants, all 16 participants who were not deceased at the time of LTFU were contacted (the remaining 13 participants were deceased). […]
as §5

[4] = test system: patients with cancer-related psychiatric and existential distress; test: Secondary questionnaire domains (social relationships, environmental, physical, psychological health), long-term follow-up; conditions: single 0.3 mg/kg dose with psychotherapy; for Psychological health: baseline 13.58; for Social relationships: baseline 13.91; for Physical health: baseline 15.00; for Environmental health: baseline 15.50
Protocol: as §1, §2, §3, §4
Regarding all analyses for both the primary and secondary outcome assessments, both the psilocybin-first and niacin-first dose sequence groups were collapsed and combined into one group. Reasons for this decision included the crossover design, which prevented valid between-group comparisons subsequent to the crossover, and a need to increase power given the modest sample size.
The long-terms effects of psilocybin on variables of interest were evaluated using four repeated measures regressions, estimated within the mixed effect repeated measurement (MMRM) model. Planned within-subject t-tests (Tukey's post-hoc) were conducted comparing scores at baseline to the following time points for primary and secondary outcomes: 6.5 months after the second medication session, and the first and second LTFU points. Planned within subject t-tests were also conducted comparing scores at parent study endpoint (6.5 months) to the two LTFU points.

[5] = Spearman, second LTFU subtracted from two-weeks post-psilocybin dose scores, p<0.01
[6] = mean score at 3.2 years, p < 0.001 vs baseline
[7] = mean score at 4.5 years, p < 0.001 vs baseline
[8] = mean score at 6.5-8 months, p < 0.001 vs baseline
[9] = mean score at 6.5-8 months, p < 0.05 vs baseline

CN(C)CCc1c[nH]c2cccc(OP(=O)(O)O)c12 [psilocybin, [3-(2-dimethylaminoethyl)-1H-indol-4-yl] dihydrogen phosphate]
correlation (r) of length of time between psilocybin session and follow-up with HAD-D depression change score [1, 5]: 0.70
HADS Depression [1, 6]: 2.25
HADS Anxiety [1, 6]: 5.50
HADS Total [1, 6]: 7.13
HADS Depression ([1]; mean score at 4.5 years, p < 0.01 vs baseline): 2.30
HADS Anxiety [1, 7]: 4.99
HADS Total [1, 7]: 7.34
HADS Depression [1, 8]: 1.75
HADS Anxiety [1, 8]: 2.81
HADS Total [1, 8]: 4.38
participants with clinically significant reductions in global psychological distress on the HADS-T ([1]; second LTFU point (4.5 years, n=14), 50% or greater reduction relative to baseline): Seventy-one
participants with clinically significant anxiolytic response on the HADS-A ([1]; second LTFU point (4.5 years, n=14), response = 50% or greater reduction relative to baseline): 57%
Demoralization ([2]; mean score at 3.2 years): 13.29
Demoralization ([2]; mean score at 4.5 years): 14.32
Demoralization ([2]; mean score at 6.5-8 months): 16.84
correlation (r) of length of time between psilocybin session and follow-up with HAI hopelessness change score [3, 5]: 0.69
Hopelessness ([3]; mean score at 3.2 years): 2.29
Hopelessness ([3]; mean score at 4.5 years): 1.65
Hopelessness ([3]; mean score at 6.5-8 months): 1.65
Psychological health ([4]; mean score at 3.2 years, p < 0.01 vs baseline): 15.48
Social relationships ([4]; mean score at 3.2 years): 15.54
Physical health ([4]; mean score at 3.2 years): 16.33
Environmental health ([4]; mean score at 3.2 years, p < 0.05 vs baseline): 16.72
Psychological health ([4]; mean score at 4.5 years): 14.80
Social relationships ([4]; mean score at 4.5 years): 14.67
Physical health ([4]; mean score at 4.5 years): 13.89
Environmental health ([4]; mean score at 4.5 years, p < 0.05 vs baseline): 17.00
Psychological health [4, 8]: 15.70
Social relationships ([4]; mean score at 6.5-8 months): 15.27
Physical health [4, 9]: 16.35
Environmental health [4, 9]: 16.54

From patent publication US20220151993A1, “TREATMENT OF ANXIETY AND DEPRESSION” (NEW YORK UNIVERSITY, priority 2020, published 2022)
